From patent publication US11214803B2, “Modulators of YAP1 expression” (Ionis Pharmaceuticals, Inc., priority 2019, dated 2022)
Marks after values point to notes of the source that are not given here. Strand notation (5' to 3'): a small letter for the sugar, then the base; units joined by * are phosphorothioate-linked, units joined directly phosphodiester-linked; [ ] holds rarer units or linkages, { } end groups; capitals alone tell only the bases. k = constrained ethyl (cEt); [5mC] = 5-methylcytosine; d = 2'-deoxy (DNA)

System: Yap1 mRNA
Assay: Antisense inhibition of human Yap1 in A-431 cells by cEt gapmers, single dose (Example 2, RTS4814)
Assay type: cell-based
Conditions: A-431 cells, 5,000 cells per well, free uptake, 2,000 nM modified oligonucleotide, approx. 48 hours, RTS4814, normalized to RIBOGREEN; Table 4; asterisk (*) = targets amplicon region of primer probe set
Method in brief: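 Single-dose knockdown screen of 3-10-3 cEt phosphorothioate gapmers at 2,000 nM added by free uptake to A-431 cells. After roughly 48 h, RNA was isolated and Yap1 transcript measured by RT-qPCR, with results given as % UTC.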

Substance	YAP1 (% UTC)
716412 (kG*kT*kA*dG*dT*d[5mC]*dT*dG*dG*dG*dA*dA*dA*k[5mC]*kG*kG; antisense) [Compound 716412]	41
716448 (k[5mC]*k[5mC]*kG*dA*d[5mC]*dA*dA*dA*dA*d[5mC]*d[5mC]*dA*dA*k[5mC]*k[5mC]*kA; antisense) [Compound 716448]	62
716421 (kT*kA*kT*dT*dA*dG*d[5mC]*d[5mC]*dT*dG*dA*dA*dA*kA*k[5mC]*kT; antisense) [Compound 716421]	86
716499 (kT*kT*kT*dT*dG*d[5mC]*d[5mC]*d[5mC]*dT*d[5mC]*d[5mC]*dT*d[5mC]*k[5mC]*kA*kA; antisense) [Compound 716499]	102
716553 (kA*kT*k[5mC]*d[5mC]*dA*d[5mC]*d[5mC]*dT*dG*dA*dG*d[5mC]*dA*k[5mC]*kT*k[5mC]; antisense) [Compound 716553]	54

Same assay, conditions: Table 5; A-431 cells, 5,000 cells per well, free uptake, 2,000 nM modified oligonucleotide, approx. 48 hours; RTS4814; normalized to RIBOGREEN; Yap1 mRNA relative to untreated control cells

Substance	YAP1 (% UTC)
716551 (k[5mC]*kG*k[5mC]*dT*dA*dG*dA*dA*dA*dA*dG*dT*dG*kT*kT*kA; antisense) [Compound 716551]	76
716410 (kG*kT*kA*dT*d[5mC]*dA*d[5mC]*d[5mC]*dT*dG*dT*dA*dT*k[5mC]*k[5mC]*kA; antisense) [Compound 716410]	52
716488 (k[5mC]*kA*kT*dT*dA*dT*dT*dA*d[5mC]*dT*d[5mC]*d[5mC]*dT*kG*kT*kA; antisense) [Compound 716488]	67
716467 (k[5mC]*k[5mC]*kG*dT*dA*dT*dG*d[5mC]*d[5mC]*d[5mC]*dA*dG*dA*kG*kG*kG; antisense) [Compound 716467]	99
716449 (kG*kG*kT*d[5mC]*dA*dT*dT*dT*dG*d[5mC]*d[5mC]*dT*dA*kG*kG*kT; antisense) [Compound 716449]	49

Same assay, conditions: Table 6; A-431 cells, 5,000 cells per well, free uptake, 2,000 nM modified oligonucleotide, approx. 48 hours; RTS4814; normalized to RIBOGREEN; Yap1 mRNA relative to untreated control cells

Substance	YAP1 (% UTC)
716384 (kA*kG*kG*dA*d[5mC]*d[5mC]*dT*dG*dA*dA*dG*d[5mC]*d[5mC]*kG*kA*kG; antisense) [Compound 716384]	71
716417 (kT*kG*kT*dA*dA*dG*dA*dA*dA*dG*d[5mC]*dT*dT*kT*k[5mC]*kT; antisense) [Compound 716417]	78

Same assay, conditions: Table 18; A-431 cells, 5,000 cells per well, free uptake, 2,000 nM modified oligonucleotide, approx. 48 hours; RTS4814; normalized to RIBOGREEN; Yap1 mRNA as percent of untreated control

Substance	YAP1 (% UTC)
1075908 (kA*kA*kT*dA*dA*dG*dG*dA*dG*dT*dA*dG*dG*kT*kG*kG; antisense) [Compound 1075908]	50

Same assay, conditions: Table 19; A-431 cells, 5,000 cells per well, free uptake, 2,000 nM modified oligonucleotide, approx. 48 hours; RTS4814; normalized to RIBOGREEN; Yap1 mRNA as percent of untreated control

Substance	YAP1 (% UTC)
1075749 (kA*kA*kT*dT*dA*dT*dG*dA*dA*dT*dG*dA*dT*kG*kG*kG; antisense) [Compound 1075749]	4
1074725 (antisense kG*kT*kA*dT*dA*dA*d[5mC]*dT*dG*dG*dG*d[5mC]*dA*kA*kA*kT) [Compound 1074725]	17
1076325 (k[5mC]*kT*kA*dA*dT*dA*dA*dT*dG*dG*dA*dA*dG*kA*kG*kT; antisense) [Compound 1076325]	16

Same assay, conditions: Table 20; Yap1 mRNA, percent of untreated control; 3-10-3 cEt gapmers targeting SEQ ID NO.: 1 and 2

Substance	YAP1 (% UTC)
1075718 (k[5mC]*k[5mC]*kA*d[5mC]*dT*dA*dA*dA*dA*d[5mC]*d[5mC]*dA*dA*kG*kT*kT; antisense) [Compound 1075718]	48

Same assay, conditions: Table 21; Yap1 mRNA, percent of untreated control; 3-10-3 cEt gapmers targeting SEQ ID NO.: 1 and 2

Substance	YAP1 (% UTC)
1075207 (antisense k[5mC]*kT*kA*dT*dT*dA*dA*dA*dT*dG*dA*dG*d[5mC]*kA*k[5mC]*k[5mC]) [Compound 1075207]	4

Same assay, conditions: Table 22; Yap1 mRNA as percent of untreated control; 3-10-3 cEt gapmers; single dose

Substance	YAP1 (% UTC)
1074408 (antisense kG*kA*kT*dT*dA*dA*dA*dG*dT*dA*dT*d[5mC]*dT*kT*kG*k[5mC]) [Compound 1074408]	23
1075400 (antisense kT*kA*kG*d[5mC]*dA*dA*dT*dA*dG*dT*d[5mC]*dA*dG*kG*kT*kA) [Compound 1075400]	11
1074600 (antisense k[5mC]*kA*kG*d[5mC]*dT*dA*dA*d[5mC]*dT*d[5mC]*dA*dA*dA*kA*k[5mC]*k[5mC]) [Compound 1074600]	29
1076232 (kG*kT*kA*dA*dT*dA*d[5mC]*dA*d[5mC]*d[5mC]*dA*dT*dT*kT*kG*kG; antisense) [Compound 1076232]	15

Same assay, conditions: Table 23; Yap1 mRNA as percent of untreated control; 3-10-3 cEt gapmers; single dose

Substance	YAP1 (% UTC)
1075625 (kA*kA*kT*d[5mC]*dT*dA*dT*dA*dA*d[5mC]*d[5mC]*d[5mC]*dT*kT*kA*kT; antisense) [Compound 1075625]	49 % UTC
1074441 (k[5mC]*kA*kA*dA*d[5mC]*dT*dA*dA*dA*dT*dG*d[5mC]*dT*kG*kT*kG; antisense) [Compound 1074441]	5* % UTC
1074377 (antisense kA*kA*kA*d[5mC]*dG*dG*dT*dT*d[5mC]*dT*dG*d[5mC]*dT*kG*kT*kG) [Compound 1074377]	52 % UTC
1074697 (antisense kA*kT*k[5mC]*dA*dA*dG*dG*dT*d[5mC]*d[5mC]*d[5mC]*d[5mC]*d[5mC]*kT*kA*kA) [Compound 1074697]	44 % UTC

Same assay, conditions: Table 24; Yap1 mRNA as percent of untreated control; 3-10-3 cEt gapmers targeting SEQ ID NO.: 1, and 2

Substance	YAP1 (% UTC)
1074410 (antisense kT*kA*kG*dA*dG*dG*dA*dT*dT*dA*dA*dA*dG*kT*kA*kT) [Compound 1074410]	32
1074282 (antisense k[5mC]*kG*kA*dG*dG*dG*dT*d[5mC]*dA*dA*dG*d[5mC]*d[5mC]*kT*kT*kG) [Compound 1074282]	83
1074506 (kT*kA*kA*dT*d[5mC]*dG*dA*dG*dA*dT*dT*dT*dA*kA*kA*kT; antisense) [Compound 1074506]	107
1075338 (k[5mC]*k[5mC]*k[5mC]*dA*dA*dA*dA*dA*d[5mC]*dT*dA*dG*d[5mC]*kT*kT*kA; antisense) [Compound 1075338]	56
1075754 (k[5mC]*kT*kT*dA*dA*dA*dT*dG*dG*d[5mC]*dA*d[5mC]*dA*kG*kT*kT; antisense) [Compound 1075754]	20

Same assay, conditions: Table 25; Yap1 mRNA as percent of untreated control; 3-10-3 cEt gapmers targeting SEQ ID NO.: 1, and 2

Substance	YAP1 (% UTC)
1076427 (k[5mC]*kA*kA*dA*dT*dT*dT*dA*d[5mC]*dT*dG*dA*dT*k[5mC]*kT*k[5mC]; antisense) [Compound 1076427]	3
1074219 (antisense kA*kG*kT*d[5mC]*dA*dG*dG*dG*d[5mC]*dT*d[5mC]*d[5mC]*dT*kG*k[5mC]*kA) [Compound 1074219]	30

Same assay, conditions: Table 32; Yap1 mRNA, percent of untreated control; 3-10-3 cEt gapmers targeting SEQ ID NO.: 1, and 2

Substance	YAP1 (% UTC)
1075026 (antisense k[5mC]*kT*kT*dA*dA*dA*dA*dG*d[5mC]*d[5mC]*dA*dT*d[5mC]*kT*kA*k[5mC]) [compound 1075026]	55
1075922 (antisense kG*k[5mC]*k[5mC]*d[5mC]*dA*dA*dA*dA*dT*dA*dG*dG*dA*kT*kA*k[5mC]) [compound 1075922]	60
1075410 (antisense kG*kA*kT*dT*dA*dA*d[5mC]*dA*dG*d[5mC]*d[5mC]*d[5mC]*dT*kT*kT*kA) [compound 1075410]	36

Same assay, conditions: Table 33; Yap1 mRNA, percent of untreated control; 3-10-3 cEt gapmers targeting SEQ ID NO.: 1, and 2

Substance	YAP1 (% UTC)
1074963 (antisense kT*kA*kG*dG*d[5mC]*dA*dA*dG*d[5mC]*dA*dG*d[5mC]*dT*kA*kA*kA) [compound 1074963]	76
1074131 (kG*kG*k[5mC]*d[5mC]*d[5mC]*d[5mC]*dG*d[5mC]*dA*dT*d[5mC]*d[5mC]*d[5mC]*k[5mC]*k[5mC]*kG; antisense) [compound 1074131]	72

Same assay, conditions: Yap1 mRNA as percent of untreated control; A-431 cells; 3-10-3 cEt gapmers targeting SEQ ID NO.: 1, and 2; Table 30

Substance	YAP1 (% UTC)
1076336 (antisense k[5mC]*kA*kT*dT*dA*d[5mC]*d[5mC]*dA*d[5mC]*d[5mC]*dT*dA*dT*kA*kA*kG) [compound 1076336]	31
1075952 (antisense k[5mC]*kT*kA*dT*dA*dT*dA*d[5mC]*d[5mC]*dT*dG*d[5mC]*dT*kT*k[5mC]*kT) [compound 1075952]	41
1074192 (antisense kG*kA*k[5mC]*dG*dG*d[5mC]*dG*dG*dG*d[5mC]*d[5mC]*d[5mC]*dT*kG*k[5mC]*k[5mC]) [compound 1074192]	108
1074768 (k[5mC]*kT*kT*dA*dT*d[5mC]*d[5mC]*d[5mC]*dA*dA*dT*dG*d[5mC]*kT*kA*k[5mC]; antisense) [compound 1074768]	11

Same assay, conditions: Yap1 mRNA as percent of untreated control; A-431 cells; 3-10-3 cEt gapmers targeting SEQ ID NO.: 1, and 2; Table 31

Substance	YAP1 (% UTC)
1075793 (k[5mC]*kA*kT*dT*dA*dG*dT*dT*dG*d[5mC]*d[5mC]*d[5mC]*dT*kG*kA*k[5mC]; antisense) [compound 1075793]	31
1075217 (kT*kT*kA*dT*dT*dT*dT*dA*d[5mC]*dA*d[5mC]*dG*dA*kA*k[5mC]*kT; antisense) [compound 1075217]	71
1074513 (kA*kG*kG*dA*dT*dA*d[5mC]*dA*dT*dT*d[5mC]*d[5mC]*dA*k[5mC]*kT*kA; antisense) [compound 1074513]	47
